The structures appear in SMILES notation.

What all share (format): cell-based
Test [1] addresses T1, EGFR L858R/T790M/C797S (BaF3-LTC cells) (Homo sapiens, UniProt P00533, C797S/L858R/T790M).
T1 construct: expressed in transfected cells; host or cells: BaF3
The test can be described thus: EGFR degradation HTRF assay, BaF3-LTC cells. The following applies: BaF3-LTC, 16h treatment; for Dmax: maximum percentage of degradation, read-out: LTC Dmax (%); for DC50: read-out: LTC DC50. In short, it runs like this: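 Cells treated 16 h at 37 °C, 5% CO2 in medium with 0.2% DMSO; top final concentration 10 uM, 5-fold dilution, 8 doses. Lysates read by HTRF (665/620 nm); degradation % versus DMSO high control, DC50 from four-parameter fit, Dmax as maximal degradation.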
In general terms: Time-resolved FRET reads energy transfer from a long-lived donor to a nearby acceptor.

Test [2] concerns EGFR Del19/T790M/C797S (BaF3-DTC cells). The test can be described thus: EGFR degradation HTRF assay, BaF3-DTC cells. The following applies: 16h treatment; for DTC Dmax (%): maximum percentage of degradation; for DC50: read-out: DTC DC50. In short, it runs like this: (§1)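 BaF3 (WT, Del19/T790M/C797S) and HCC827 cells exposed 16 h at 37 °C, 5% CO2 to compounds in 0.2% DMSO medium, 8 doses from 10 uM top, 5-fold steps. Lysates read by HTRF (665/620 nm); degradation % vs DMSO control, DC50 from four-parameter fit, Dmax as maximal degradation.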

The target in the next test is T2, EGFR (HCC827 cells) (Homo sapiens, UniProt P00533, DEL746-750).
T2 construct: endogenous in cells; host or cells: HCC827
T2 sequence (P00533 with tags, fused parts or gaps DEL746-750): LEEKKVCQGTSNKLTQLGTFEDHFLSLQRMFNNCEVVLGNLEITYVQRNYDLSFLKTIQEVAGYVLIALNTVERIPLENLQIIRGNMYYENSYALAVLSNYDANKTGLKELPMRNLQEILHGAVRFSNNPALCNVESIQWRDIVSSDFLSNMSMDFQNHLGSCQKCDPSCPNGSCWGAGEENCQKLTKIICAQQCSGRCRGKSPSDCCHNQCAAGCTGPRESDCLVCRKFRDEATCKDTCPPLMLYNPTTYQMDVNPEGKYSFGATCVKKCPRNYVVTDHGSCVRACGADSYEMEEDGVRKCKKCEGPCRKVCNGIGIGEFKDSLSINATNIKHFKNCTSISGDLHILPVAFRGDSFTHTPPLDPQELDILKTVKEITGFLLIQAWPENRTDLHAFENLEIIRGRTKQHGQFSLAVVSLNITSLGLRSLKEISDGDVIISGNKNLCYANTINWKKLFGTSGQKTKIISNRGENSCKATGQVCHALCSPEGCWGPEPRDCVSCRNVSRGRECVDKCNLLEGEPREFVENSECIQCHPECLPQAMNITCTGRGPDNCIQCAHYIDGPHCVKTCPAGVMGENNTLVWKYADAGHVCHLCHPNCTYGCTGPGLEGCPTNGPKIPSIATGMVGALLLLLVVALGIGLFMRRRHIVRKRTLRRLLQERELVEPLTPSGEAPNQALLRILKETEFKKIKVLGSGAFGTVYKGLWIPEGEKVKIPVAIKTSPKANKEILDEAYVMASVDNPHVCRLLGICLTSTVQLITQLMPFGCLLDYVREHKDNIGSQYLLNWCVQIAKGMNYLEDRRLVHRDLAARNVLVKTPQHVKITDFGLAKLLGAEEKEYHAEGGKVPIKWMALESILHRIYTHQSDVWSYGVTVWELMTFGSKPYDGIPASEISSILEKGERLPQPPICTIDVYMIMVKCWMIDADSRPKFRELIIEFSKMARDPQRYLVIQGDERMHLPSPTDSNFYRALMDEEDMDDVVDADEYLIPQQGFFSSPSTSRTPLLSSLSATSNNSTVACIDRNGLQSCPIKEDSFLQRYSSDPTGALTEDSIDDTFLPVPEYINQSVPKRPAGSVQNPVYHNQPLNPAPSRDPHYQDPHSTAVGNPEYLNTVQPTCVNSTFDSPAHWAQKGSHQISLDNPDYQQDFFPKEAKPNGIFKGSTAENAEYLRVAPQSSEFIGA
The test can be described thus: EGFR degradation HTRF assay, HCC827 cells. The following applies: HCC827, 16h treatment; for Dmax: maximum percentage of degradation. In short, it runs like this: as §1

The target of test [3] is T3, EGFR L858R/T790M (H1975-clone #36, homozygous) (Homo sapiens, UniProt P00533, L858R/T790M).
T3 construct: designed to specifically target WT EGFR but preserve the L858R/T790M copy; host or cells: H1975-clone #36
T3 sequence (P00533 25-1210 T790M/L858R): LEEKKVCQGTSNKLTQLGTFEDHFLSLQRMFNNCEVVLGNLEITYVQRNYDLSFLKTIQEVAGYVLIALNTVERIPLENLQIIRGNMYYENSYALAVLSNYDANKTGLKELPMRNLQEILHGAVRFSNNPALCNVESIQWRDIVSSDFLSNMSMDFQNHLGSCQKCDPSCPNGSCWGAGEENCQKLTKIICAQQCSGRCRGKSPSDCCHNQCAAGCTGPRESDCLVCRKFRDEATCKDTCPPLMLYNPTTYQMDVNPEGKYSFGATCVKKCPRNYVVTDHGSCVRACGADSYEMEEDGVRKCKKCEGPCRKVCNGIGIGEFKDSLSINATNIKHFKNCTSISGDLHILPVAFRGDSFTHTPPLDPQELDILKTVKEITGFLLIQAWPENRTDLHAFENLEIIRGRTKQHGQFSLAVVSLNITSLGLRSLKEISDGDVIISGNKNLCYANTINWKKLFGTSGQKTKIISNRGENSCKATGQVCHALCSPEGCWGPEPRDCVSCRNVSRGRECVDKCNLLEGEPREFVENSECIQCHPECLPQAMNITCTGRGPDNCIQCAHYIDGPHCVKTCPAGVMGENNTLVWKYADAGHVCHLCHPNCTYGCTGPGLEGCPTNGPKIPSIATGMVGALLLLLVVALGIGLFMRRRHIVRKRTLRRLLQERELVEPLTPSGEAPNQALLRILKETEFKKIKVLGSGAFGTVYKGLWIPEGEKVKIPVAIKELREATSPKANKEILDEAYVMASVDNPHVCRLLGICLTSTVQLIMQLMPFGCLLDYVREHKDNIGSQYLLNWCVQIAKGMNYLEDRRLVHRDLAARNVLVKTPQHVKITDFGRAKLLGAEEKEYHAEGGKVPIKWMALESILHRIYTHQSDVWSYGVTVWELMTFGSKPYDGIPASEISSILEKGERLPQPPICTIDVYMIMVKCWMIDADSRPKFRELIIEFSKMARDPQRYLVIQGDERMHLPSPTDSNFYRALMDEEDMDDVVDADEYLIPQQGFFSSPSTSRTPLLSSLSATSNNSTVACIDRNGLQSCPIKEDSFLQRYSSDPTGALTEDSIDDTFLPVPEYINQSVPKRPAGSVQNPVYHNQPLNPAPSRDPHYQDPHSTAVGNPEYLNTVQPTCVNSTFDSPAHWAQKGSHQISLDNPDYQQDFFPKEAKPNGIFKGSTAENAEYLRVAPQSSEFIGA
The test can be described thus: EGFR degradation HTRF assay, H1975-clone #36 cells. The following applies: H1975 #36, 16h treatment; for Dmax: NCI-H1975, maximum percentage of degradation. The method in brief:
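H1975 clone #36, made homozygous for L858R/T790M EGFR by knockout of the WT allele, treated 16 h at 37 °C with compound in 0.2% DMSO medium. Eight doses from 10 uM, 5-fold dilutions. EGFR measured by HTRF in lysates. DC50 and Dmax fitted against DMSO controls.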

In another test the target is T4, EGFR WT (BaF3 WT cells) (Homo sapiens, UniProt P00533).
T4 construct: expressed in transfected cells; host or cells: BaF3
T4 sequence (P00533 25-1210): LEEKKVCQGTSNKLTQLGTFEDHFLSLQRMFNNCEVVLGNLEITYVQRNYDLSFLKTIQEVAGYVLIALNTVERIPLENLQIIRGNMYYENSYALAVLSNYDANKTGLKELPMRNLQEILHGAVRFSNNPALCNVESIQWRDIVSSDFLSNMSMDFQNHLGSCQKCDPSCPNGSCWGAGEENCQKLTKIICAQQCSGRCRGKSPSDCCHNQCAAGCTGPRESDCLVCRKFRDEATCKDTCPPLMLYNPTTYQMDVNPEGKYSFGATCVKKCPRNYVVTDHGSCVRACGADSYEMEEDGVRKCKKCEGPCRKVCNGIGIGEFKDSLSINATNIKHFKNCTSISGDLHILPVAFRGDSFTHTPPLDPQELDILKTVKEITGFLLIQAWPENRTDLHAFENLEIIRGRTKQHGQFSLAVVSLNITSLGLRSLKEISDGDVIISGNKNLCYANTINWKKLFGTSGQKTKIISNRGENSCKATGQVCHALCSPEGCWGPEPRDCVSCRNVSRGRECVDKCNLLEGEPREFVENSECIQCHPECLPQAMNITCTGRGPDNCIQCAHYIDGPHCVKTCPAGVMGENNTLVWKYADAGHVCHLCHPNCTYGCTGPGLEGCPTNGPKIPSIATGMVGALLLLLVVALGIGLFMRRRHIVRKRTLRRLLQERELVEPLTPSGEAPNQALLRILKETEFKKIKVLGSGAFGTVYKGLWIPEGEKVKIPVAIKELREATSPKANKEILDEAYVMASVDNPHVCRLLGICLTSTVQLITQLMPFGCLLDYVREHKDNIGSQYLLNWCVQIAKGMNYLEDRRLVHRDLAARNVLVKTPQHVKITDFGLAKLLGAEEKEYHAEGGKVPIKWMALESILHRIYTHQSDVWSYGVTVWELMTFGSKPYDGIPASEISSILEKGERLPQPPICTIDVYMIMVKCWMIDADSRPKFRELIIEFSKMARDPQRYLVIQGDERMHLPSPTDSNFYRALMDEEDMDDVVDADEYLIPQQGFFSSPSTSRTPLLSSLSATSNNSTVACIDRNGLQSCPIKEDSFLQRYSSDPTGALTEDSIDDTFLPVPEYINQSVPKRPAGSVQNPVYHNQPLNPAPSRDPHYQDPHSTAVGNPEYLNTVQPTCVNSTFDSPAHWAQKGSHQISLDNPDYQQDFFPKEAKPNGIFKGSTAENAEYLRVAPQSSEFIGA
The test can be described thus: EGFR degradation HTRF assay, BaF3 WT cells. The conditions noted are these: BaF3 WT, 16h treatment; for Dmax: maximum percentage of degradation, read-out: WT Dmax (%). In short, it runs like this:
as §1

T1 sequence (P00533 25-1210 T790M/C797S/L858R): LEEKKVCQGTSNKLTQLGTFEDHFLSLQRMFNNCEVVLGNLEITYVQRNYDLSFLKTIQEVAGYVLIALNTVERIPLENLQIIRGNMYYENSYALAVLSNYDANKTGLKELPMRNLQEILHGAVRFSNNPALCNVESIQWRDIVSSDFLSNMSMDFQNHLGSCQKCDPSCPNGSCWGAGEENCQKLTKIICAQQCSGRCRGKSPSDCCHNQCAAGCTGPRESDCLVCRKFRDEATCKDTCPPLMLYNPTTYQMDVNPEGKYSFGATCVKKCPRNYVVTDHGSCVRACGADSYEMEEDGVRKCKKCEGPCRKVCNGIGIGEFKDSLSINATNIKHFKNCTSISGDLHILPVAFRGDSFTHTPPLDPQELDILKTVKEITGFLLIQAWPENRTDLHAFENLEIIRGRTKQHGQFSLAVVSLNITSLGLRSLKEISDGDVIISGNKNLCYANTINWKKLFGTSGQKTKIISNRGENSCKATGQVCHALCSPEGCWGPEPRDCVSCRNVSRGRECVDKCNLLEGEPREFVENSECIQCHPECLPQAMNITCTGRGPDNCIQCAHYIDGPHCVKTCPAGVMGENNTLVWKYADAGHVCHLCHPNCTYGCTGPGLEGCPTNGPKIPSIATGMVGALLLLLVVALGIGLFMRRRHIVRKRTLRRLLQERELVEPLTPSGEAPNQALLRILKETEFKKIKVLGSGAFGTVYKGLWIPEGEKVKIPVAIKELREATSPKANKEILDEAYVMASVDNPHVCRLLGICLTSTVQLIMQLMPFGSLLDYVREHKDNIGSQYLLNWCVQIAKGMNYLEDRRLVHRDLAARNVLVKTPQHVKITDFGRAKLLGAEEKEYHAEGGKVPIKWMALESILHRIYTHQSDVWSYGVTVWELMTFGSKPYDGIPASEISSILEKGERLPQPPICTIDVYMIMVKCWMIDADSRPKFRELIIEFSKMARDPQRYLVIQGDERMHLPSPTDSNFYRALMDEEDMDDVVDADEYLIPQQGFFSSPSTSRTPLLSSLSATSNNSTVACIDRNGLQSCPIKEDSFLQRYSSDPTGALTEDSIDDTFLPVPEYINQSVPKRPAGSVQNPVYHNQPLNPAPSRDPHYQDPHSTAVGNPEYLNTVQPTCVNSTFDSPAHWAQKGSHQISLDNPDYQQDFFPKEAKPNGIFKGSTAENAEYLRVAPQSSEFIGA

For the compound `CP(C)(=O)c1c(Nc2nc(Nc3ccc(N4CCN(C5CN(CCC6CCN(c7ccc(C8CCC(=O)NC8=O)c(F)c7)CC6)C5)CC4)c(F)c3)ncc2Br)ccc2nccnc12` (stereo not drawn) [Example 203, 3-(4-(4-(2-(3-(4-(4-((5-bromo-4-((5-(dimethylphosphoryl)quinoxalin-6-yl)amino)pyrimidin-2-yl)amino)-2-fluorophenyl)piperazin-1-yl)azetidin-1-yl)ethyl)piperidin-1-yl)-2-fluorophenyl)piperidine-2,6-dione], the maximal degradation (Dmax) in test [1] was 82.1%; at EGFR (HCC827 cells) it was 89.9%; in test [3] it was 95.8%; at EGFR WT (BaF3 WT cells) it was 35.3%. Moreover, the DC50 in test [1] was 17 nM; in test [2] it was 13.5 nM; at EGFR (HCC827 cells), 9.06 nM; in test [3], 7.24 nM; on EGFR WT (BaF3 WT cells), over 10000 nM. The “DTC Dmax (%)” value in test [2] came out at 92.4%.
For `CP(C)(=O)c1c(Nc2nc(Nc3ccc(N4CCN(C5CN(CC6CN(c7ccc8c(c7)C(=O)N(C7CCC(=O)NC7=O)C8=O)C6)C5)CC4)c(F)c3)ncc2Br)ccc2nccnc12` (stereo not drawn) [Example 259, 5-(3-((3-(4-(4-((5-bromo-4-((5-(dimethylphosphoryl)quinoxalin-6-yl)amino)pyrimidin-2-yl)amino)-2-fluorophenyl)piperazin-1-yl)azetidin-1-yl)methyl)azetidin-1-yl)-2-(2,6-dioxopiperidin-3-yl)isoindoline-1,3-dione], the Dmax is 92.1% in test [1], 81% at EGFR (HCC827 cells), 99.9% in test [3] and 11.7% at EGFR WT (BaF3 WT cells). In addition, the DC50 in test [1] was 7.04 nM; in test [2] it was 3.72 nM; at EGFR (HCC827 cells) it was 5.33 nM; in test [3] it was 4.69 nM; at EGFR WT (BaF3 WT cells), over 10000 nM. Also, in test [2], the “DTC Dmax (%)” value was 95.97%.
`CCc1cc(Nc2ncc(Br)c(Nc3ccc4nccnc4c3P(C)(C)=O)n2)c(OC)cc1N1CCC(N2CCN(CC3CCN(c4ccc5c(c4)C(=O)N(C4CCC(=O)NC4=O)C5=O)CC3)CC2)CC1` (stereo not drawn) [Example 272, 5-(4-((4-(1-(4-((5-bromo-4-((5-(dimethylphosphoryl)quinoxalin-6-yl)amino)pyrimidin-2-yl)amino)-2-ethyl-5-methoxyphenyl)piperidin-4-yl)piperazin-1-yl)methyl)piperidin-1-yl)-2-(2,6-dioxopiperidin-3-yl)isoindoline-1,3-dione]: the maximal degradation (Dmax) in test [1] amounted to 90.9%; at EGFR (HCC827 cells) it was 86.2%; in test [3], 75%; on EGFR WT (BaF3 WT cells) it was 12.1%. Also, the DC50 in test [1] was 35.6 nM; in test [2], 21.9 nM; on EGFR (HCC827 cells), 5.35 nM; in test [3], 10.5 nM; on EGFR WT (BaF3 WT cells), over 10000 nM. Also, in test [2], the “DTC Dmax (%)” value came out at 91.58%.

The term Dmax denotes the largest share of the target that was removed. One may read the DC50 as the concentration at which degradation of the target reaches its halfway point.

Source of the values: patent publication US20230265116A1, “DEGRADATION OF (EGFR) BY CONJUGATION OF EGFR INHIBITORS WITH E3 LIGASE LIGAND AND METHODS OF USE” (BEIGENE, LTD., priority 2020, published 2023).
